Experimental data from patent publication US12448388B2, “PRMT5 inhibitors and uses thereof” (Gilead Sciences, Inc., priority 2023, dated 2025).
Like-named read-outs stand apart in the source and are kept apart here.

Test system: HCT116 MTAP-deleted cell lines
Test: Cell viability assay (CellTiter-Glo, 7 days), HCT116 MTAP-deleted
Type: cell-based
Details: Homo sapiens, HCT-116
Procedure, shortened: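 Read-out was CellTiter-Glo luminescence after a 7-day incubation (37 °C, 5% CO2) of HCT116 cells, MTAP-deleted or WT, on dose-response compound plates. CC50 values come from each line; where marked *, selectivity is overstated because poor solubility impaired the WT CC50 measurement.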

[1] = cell viability, HCT116 MTAP-deleted, class symbols, read-out: CC50

C[C@@H]1CCN(C(=O)c2cc3c(cc2F)nc(N)c2cncn23)C(c2ccc(C(F)(F)F)cn2)C1 (stereo partly drawn) [Ff-224, (4-amino-7-fluoroimidazo[1,5-a]quinoxalin-8-yl)((4R)-4-methyl-2-(5-(trifluoromethyl)pyridin-2-yl)piperidin-1-yl)methanone]
CC50 [1]: 100 to 1000 nM

Nc1nc2cc(F)c(C(=O)N3CCC4(CC4)CC3c3ccc(C(F)(F)F)cn3)cc2n2cncc12 (centres unmarked) [Ff-225, (4-amino-7-fluoroimidazo[1,5-a]quinoxalin-8-yl)(5-(5-(trifluoromethyl)pyridin-2-yl)-6-azaspiro[2.5]octan-6-yl)methanone]
CC50: 100 to 1000 nM

Nc1nc2cc(F)c(C(=O)N(Cc3ccc(C(F)(F)F)cc3F)c3ncco3)cc2n2cncc12 [Ff-226, 4-amino-7-fluoro-N-(2-fluoro-4-(trifluoromethyl)benzyl)-N-(oxazol-2-yl)imidazo[1,5-a]quinoxaline-8-carboxamide]
CC50 [1]: < 100 nM

Nc1nc2cc(F)c(C(=O)N(Cc3ccc(C(F)(F)F)cc3F)c3cnsc3)cc2n2cncc12 [Ff-227, 4-amino-7-fluoro-N-(2-fluoro-4-(trifluoromethyl)benzyl)-N-(isothiazol-4-yl)imidazo[1,5-a]quinoxaline-8-carboxamide]
CC50 [1]: < 100 nM

CN(C(=O)c1cc2c(cc1F)nc(N)c1cncn12)[C@@H]1COc2cc(-c3ccc(C(F)(F)F)nc3)ccc21 [Ff-229, (S)-4-amino-7-fluoro-N-methyl-N-(6-(6-(trifluoromethyl)pyridin-3-yl)-2,3-dihydrobenzofuran-3-yl)imidazo[1,5-a]quinoxaline-8-carboxamide]
CC50 [1]: < 100 nM

CN(C(=O)c1cc2c(cc1F)nc(N)c1cncn12)[C@@H]1COc2cc(-c3ccc(C(F)(F)F)cc3)ccc21 [Ff-230, (S)-4-amino-7-fluoro-N-methyl-N-(6-(4-(trifluoromethyl)phenyl)-2,3-dihydrobenzofuran-3-yl)imidazo[1,5-a]quinoxaline-8-carboxamide]
CC50 [1]: 100 to 1000 nM

CN(C(=O)c1cc2c(cc1F)nc(N)c1cncn12)[C@@H]1COc2cc(-c3csc(C(F)(F)F)n3)ccc21 [Ff-231, (S)-4-amino-7-fluoro-N-methyl-N-(6-(2-(trifluoromethyl)thiazol-4-yl)-2,3-dihydrobenzofuran-3-yl)imidazo[1,5-a]quinoxaline-8-carboxamide]
CC50 [1]: 100 to 1000 nM

CN(C(=O)c1cc2c(cc1F)nc(N)c1cncn12)[C@@H]1COc2cc(-c3cnc(C(F)(F)F)s3)ccc21 [Ff-232, (S)-4-amino-7-fluoro-N-methyl-N-(6-(2-(trifluoromethyl)thiazol-5-yl)-2,3-dihydrobenzofuran-3-yl)imidazo[1,5-a]quinoxaline-8-carboxamide]
CC50 [1]: < 100 nM

CN(C(=O)c1cc2c(cc1F)nc(N)c1cncn12)[C@@H]1COc2cc(-c3cnc(C(F)F)s3)ccc21 [Ff-233, (S)-4-amino-N-(6-(2-(difluoromethyl)thiazol-5-yl)-2,3-dihydrobenzofuran-3-yl)-7-fluoro-N-methylimidazo[1,5-a]quinoxaline-8-carboxamide]
CC50 [1]: < 100 nM

Nc1nc2cc(F)c(C(=O)N3CCO[C@@H]4Cc5cc(-c6cnn(C(F)(F)F)c6)ccc5[C@@H]43)cc2n2cncc12 [Ff-234, (4-amino-7-fluoroimidazo[1,5-a]quinoxalin-8-yl)((4aS,9aR)-7-(1-(trifluoromethyl)-1H-pyrazol-4-yl)-2,3,9,9a-tetrahydroindeno[2,1-b][1,4]oxazin-4(4aH)-yl)methanone]
CC50 [1]: 100 to 1000 nM

Nc1nc2cc(F)c(C(=O)N3CCO[C@@H]4Cc5cc(-c6cnn(C(F)F)c6)ccc5[C@@H]43)cc2n2cncc12 [Ff-235, (4-amino-7-fluoroimidazo[1,5-a]quinoxalin-8-yl)((4aS,9aR)-7-(1-(difluoromethyl)-1H-pyrazol-4-yl)-2,3,9,9a-tetrahydroindeno[2,1-b][1,4]oxazin-4(4aH)-yl)methanone]
CC50 [1]: < 100 nM
